Patent US4598065A, “Use of peptides as medicaments and certain novel peptides” (Novo Industri A/S, priority 1980, dated 1986)

Columns and labels:
NMRI mice = test: Acute toxicity study in NMRI mice; type: in vivo; settings: 10 mg i.v. bolus, NMRI mice 20 g (500 mg/kg body weight)
[1] = tested on: electrically stimulated guinea pig ileum; test: Contractions of the electrically stimulated guinea pig ileum in vitro; type: cell-based
Source text: 10^-5 M glucagon caused 83±4% (X±sd, N=3) ihibition compared to 78±5% for glucagon1-21. The effects of 10^-6 M was 50±3% and 52±5%, respectively, and of 10^-7 M: 27±3% for either peptide.

rat free fat cells = test: Lipolytic effect on rat free fat cells in vitro; type: cell-based
adenylate cyclase = settings: in vitro
Source text: The metabolic effects of glucagon1-21, glucagon1-26 and des(22-26)-glucagon, as exemplified by their lipolytic effect on rat free fat cells in vitro and their effect on the activation of the adenylate cyclase in vitro, are negligible compared with the metabolic effects of glucagon.

rats = test: Metabolic effects (hyperglycemia, insulin release) after administration to rats in vivo; parameters: species or system rat
[2] = tested on: intestinal motility in rabbits; test: Intestinal motility in anaesthetized rabbits in vivo (spasmolytic effect, balloon in jejunum); parameters: species or system rabbit; settings: for spasmolytic effect: Experiment B, rabbit 2.32 kg
Description: One male rabbit weighing 2.56 kg was anaesthetized with nembutal after an overnight fast. The position of the balloon used for measurement of intestinal motility was 1 meter from pylorus in the jejunum. The motility was registered before and after intraveneous administration of 77 μg glucagon1-21 in 1 ml 0.9% saline containing 0.1% human serum albumin. […] The onset of effect was 1 minute after the administration and the duration of effect was 11 minutes.
A male rabbit weighing 2.32 kg was treated as described in Experiment A with the following dosages: […]

[3] = tested on: isolated perfused rat pancreas; test: Insulin release from the isolated perfused rat pancreas; type: cell-based; settings: infused to the same concentration as glucagon
[4] = tested on: pentagastrin stimulated gastric acid secretion in gastric fistula cats; test: Pentagastrin stimulated gastric acid secretion in cats with chronic gastric fistulas; type: in vivo, cat
Description: 1 μg/kg pentagastrin subcutaneously administered to gastric fistula cats caused an increase in gastic acid secretion of 856±71 μEq (Eq designates equivalent) acid (X±S.E.M., N=18). When 2 μg/kg glucagon1-21 was administered subcutaneously at the same time as 1 μg/kg pentagastrin the increase in acid output was only 417±104 μEq acid (N=6).
In a male cat weighing approx. 4.5 kg equipped with a cronic gastric fistula the gastric acid secretion was stimulated with 4.5 μg pentagastrin (Peptavlon®) in a volume of 1 ml 0.9% saline containing 0.1% human serum albumin subcutaneously in the neck. In 8 experiments 1 ml placebo (0.9% saline with 0.1% human serum albumin) was administered subcutaneously through another cannula in the neck at the same time as the administration of pentagastrin. In 2 experiments 9 μg of glucagon1-21 in 1 ml of the above solution was administered simultaneously with the administration of pentagastrin. Gastric acid secretion was collected over periods of 15 minutes and titrated with 0.01N NaOH. The increase in acid secretion after the administration of pentagastrin was calculated as μEq acid excreted over 11/2 hrs. after the administration subtracting the basal acid secretion before administration of pentagastrin. After administration of 4.5 μg pentagastrin plus placebo the increase in gastric acid secretion was 729± 89 μEq acid (X±S.E.M., N=8). […]

[5] = tested on: rabbit gall bladder preparation; test: Relaxation of submaximally contracted rabbit gall bladder preparation in vitro; type: cell-based
gall flow in rats = test: Gall flow in rats in vivo; parameters: species or system rat
bile flow in rabbits = test: Bile flow in rabbits with catheters in the bile duct; type: in vivo, rabbit; settings: for Amount of bile: 200 μg s.c. given after 45 minutes
Description: One rex rabbit weighing 2.0 kg was equipped with a catheter in the bile duct during nembutal anaesthesia on the day before the experiment. On the day of the experiment the bile was collected for periods of 15 minutes.
After 45 minutes 200 μg glucagon was administered subcutaneously in 1 ml of 0.9% saline containing 0.1% human serum albumin. After 120 minutes 154 μg glucagon1-21 was administered subcutaneously in 1 ml of the above solution. After 195 minutes the placebo (vide Experiment C) was administered.

[6] = i.v. bolus, 100 to 200 μg glucagon or 77 to 154 μg glucagon1-21, anesthetized rabbits 2.5 to 3.0 kg

## CC(C)C[C@H](NC(=O)[C@H](Cc1ccc(O)cc1)NC(=O)[C@H](CCCCN)NC(=O)[C@H](CO)NC(=O)[C@H](Cc1ccc(O)cc1)NC(=O)[C@H](CC(=O)O)NC(=O)[C@H](CO)NC(=O)[C@@H](NC(=O)[C@H](Cc1ccccc1)NC(=O)[C@@H](NC(=O)CNC(=O)[C@H](CCC(N)=O)NC(=O)[C@H](CO)NC(=O)[C@@H](N)Cc1c[nH]cn1)[C@@H](C)O)[C@@H](C)O)C(=O)N[C@@H](CC(=O)O)C(=O)N[C@@H](CO)C(=O)N[C@@H](CCCNC(=N)N)C(=O)N[C@@H](CCCNC(=N)N)C(=O)N[C@@H](C)C(=O)N[C@@H](CCC(N)=O)C(=O)N[C@@H](CC(=O)O)C(=O)O [glucagon1-21, glucagon-(1-21)-heneicosapeptide]
NMRI mice
  deaths: No deaths occurred

## CC(C)C[C@H](NC(=O)[C@H](Cc1c[nH]c2ccccc12)NC(=O)[C@H](CCC(N)=O)NC(=O)[C@@H](NC(=O)[C@H](Cc1ccccc1)NC(=O)[C@H](CC(=O)O)NC(=O)[C@H](CCC(N)=O)NC(=O)[C@H](C)NC(=O)[C@H](CCCNC(=N)N)NC(=O)[C@H](CCCNC(=N)N)NC(=O)[C@H](CO)NC(=O)[C@H](CC(=O)O)NC(=O)[C@H](CC(C)C)NC(=O)[C@H](Cc1ccc(O)cc1)NC(=O)[C@H](CCCCN)NC(=O)[C@H](CO)NC(=O)[C@H](Cc1ccc(O)cc1)NC(=O)[C@H](CC(=O)O)NC(=O)[C@H](CO)NC(=O)[C@@H](NC(=O)[C@H](Cc1ccccc1)NC(=O)[C@@H](NC(=O)CNC(=O)[C@H](CCC(N)=O)NC(=O)[C@H](CO)NC(=O)[C@@H](N)Cc1c[nH]cn1)[C@@H](C)O)[C@@H](C)O)C(C)C)C(=O)O [glucagon1-26, glucagon-(1-26)-hexacosapeptide]
[1]; electrically stimulated guinea pig ileum in vitro
  inhibitory effect on the amplitude of the contractions, potency compared with glucagon: almost the same potency as glucagon
Rat free fat cells
  lipolytic effect (metabolic effect) compared with glucagon: negligible
Adenylate cyclase
  effect on the activation of the adenylate cyclase (metabolic effect) compared with glucagon: negligible
rats
  metabolic effects after administration in vivo: No metabolic effects

## glucagon
[1]; 10^-5 M, X±sd, N=3
  inhibition of contraction amplitude: 83±4%
[1]; 10^-6 M
  inhibition of contraction amplitude: 50±3%
[1]; 10^-7 M
  inhibition of contraction amplitude: 27±3%
[2]; 200 μg i.v.
  spasmolytic effect: no detectable effect
[2]; 400 μg
  spasmolytic effect: distinct effect
[2]; [6]
  duration of inhibition of intestinal motility: about ten
  onset of inhibition of intestinal motility after administration: one
[3]
  insulin release: releases insulin
[4]
  effect on pentagastrin stimulated gastric acid secretion: inhibit pentagastrin stimulated gastric acid secretion
[5]; 10^-6 M, strip contracted with 0.1 μg/ml cholecystochinin octapeptide
  relaxation of gall bladder strip: 39%
[5]; strip contracted with 0.1 μg/ml cholecystochinin octapeptide
  ED50 (relaxation of gall bladder strip): 2.7 µM
[5]; submaximally contracted rabbit gall bladder preparation in vitro
  relaxing effect on gall bladder preparation, relative potency: almost equipotent
Gall flow in rats
  effect on gall flow: increase in gall flow
Bile flow in rabbits; rabbits with catheters in the bile duct
  gall flow immediately after the administration: decrease in gall flow
Bile flow in rabbits; rabbits with catheters in the bile duct, after the initial decrease
  subsequent bile flow: increase in bile flow to quantities higher than before the administration
Bile flow in rabbits; sampling period 45-60 minutes, one rex rabbit 2.0 kg
  Amount of bile: 0.20 mL
Bile flow in rabbits; sampling period 60-75 minutes
  Amount of bile: 0.25 mL
Bile flow in rabbits; sampling period 75-90 minutes
  Amount of bile: 3.30 mL
Bile flow in rabbits; sampling period 90-105 minutes
  Amount of bile: 2.80 mL
Bile flow in rabbits; sampling period 105-120 minutes
  Amount of bile: 2.00 mL
